From US6569640B1, “Method of fractionation of biologically-derived materials using critical fluids” (Aphios Corporation, priority 1993, dated 2003)

Tested on: Bacillus subtilis
Assay: Antimicrobial disk diffusion assay
Type: cell-based
Details: disks containing 10 μg
Description: Microbial extracts were tested for antimicrobial activity by a disk diffusion assay. Diffusion of the metabolites into the agar creates a zone of growth inhibition around the disk if the organism is susceptible to the antimicrobial metabolite. Ten to 20 μl amounts of extract or extract fractions were applied to Whatman 3MM filter paper disks 7 mm in diameter. The disks were dried under vacuum overnight to evaporate the solvent. Bioassays were carried out with the target organism Bacillus subtilis. The target organisms were grown in nutrient broth (Difco), and adjusted to an A600 of 0.1. One hundred μl of the cell suspension was applied to the surface of a nutrient agar plate and spread uniformly with a sterile spreader. After the liquid had absorbed into the agar, the disks were placed on the surface, about 1 cm apart. The plates were incubated at 25-30° C. for 24-36 hours. Antimicrobial activity was indicated by a zone of inhibition around a disk where bacterial growth was prevented. […] In addition, positive and negative control disks were utilized. For the negative control, a disk which received only methanol was run in each test. […] For the positive control, disks containing the antimicrobial gentamycin (10 μg) were used.

**Q.** Which “zone of inhibition, positive control disk” value does the source give for gentamycin here?
**A.** Its value is “showed zones of inhibition”.
